The values below come from patent publication US9701670B2, “Pyrazolyl-ureas as kinase inhibitors” (RESPIVERT LIMITED, priority 2013, dated 2017).

pIC50: −log10 of the molar value.

Series [1] addresses p38 MAPKα isoform (MAPK14) (Homo sapiens (Human), UniProt Q16539). The series is described as follows: p38 MAPKα enzyme inhibition (FRET, Z-LYTE), Method 1. Type of series: biochemical. Particulars: Method 1 (Table 4a1).
Series [2] deals with Differentiated U937 cells. The series is described as follows: (l) Cell viability: MTT assay. Type of series: cell-based, human. As to conditions: 1 μg/mL. In a few lines: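 Differentiated U937 cells were exposed to compound at 1 or 10 μg/mL either 4 h in 5% FCS RPMI1640 or 24 h in 10% FCS RPMI1640, then given MTT for 1 h, DMSO-solubilised and read at 550 nm. Percent viability loss versus 0.5% DMSO vehicle; apparent gains appear negative.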

Chain of p38 MAPKα isoform (MAPK14) (Q16539 whole entry, canonical isoform): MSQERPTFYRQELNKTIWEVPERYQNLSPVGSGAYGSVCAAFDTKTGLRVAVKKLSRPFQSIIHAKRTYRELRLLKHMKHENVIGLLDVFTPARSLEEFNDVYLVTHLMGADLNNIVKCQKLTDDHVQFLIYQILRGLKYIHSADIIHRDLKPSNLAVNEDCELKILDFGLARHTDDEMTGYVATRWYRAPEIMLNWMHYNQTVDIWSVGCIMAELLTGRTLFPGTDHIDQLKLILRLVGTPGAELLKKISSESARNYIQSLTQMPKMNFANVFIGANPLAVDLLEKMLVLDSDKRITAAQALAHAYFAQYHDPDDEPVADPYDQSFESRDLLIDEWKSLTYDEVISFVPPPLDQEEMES

As a reminder, the pIC50 is the negative decadic logarithm of the IC50, by convention in mol/L. In turn, `CCCNC(=O)c1cccc(Nc2nccc(Oc3ccc(NC(=O)Nc4cc(C(C)(C)C)nn4-c4ccc(OC)cc4)c4ccccc34)n2)c1` [Example 17, 3-(4-(4-(3-(3-tert-butyl-1-(4-methoxyphenyl)-1H-pyrazol-5-yl)ureido)naphthalen-1-yloxy)pyrimidin-2-ylamino)-N-propylbenzamide] had a pIC50 in series [1] of 7.27. In series [2], the “Cell viability at time point in d-U937 cells 4 h” value was “−ve (−ve and +ve indicate that the value is below and above respectively, the no significant effect threshold, defined as 30% inhibition at 1 μg/mL at the time point indicated.)”; the “Cell viability at time point in d-U937 cells 24 h” value was “−ve (−ve and +ve indicate that the value is below and above respectively, the no significant effect threshold, defined as 30% inhibition at 1 μg/mL at the time point indicated.)”.

As to `COc1ccc(Nc2nccc(Oc3ccc(NC(=O)Nc4cc(C(C)C)nn4-c4ccc(C)cc4)c4ccccc34)n2)cc1C(=O)NCCN1CCOCC1` [Example 70, 5-((4-((4-(3-(3-isopropyl-1-(p-tolyl)-1H-pyrazol-5-yl)ureido)naphthalen-1-yl)oxy)pyrimidin-2-yl)amino)-2-methoxy-N-(2-morpholinoethyl)benzamide], in series [1], the pIC50 was 8.30. Also, in series [2], the “Cell viability at time point in d-U937 cells 4 h” value is “−ve (−ve and +ve indicate that the value is below and above respectively, the no significant effect threshold, defined as 30% inhibition at 1 μg/mL at the time point indicated.)”; the “Cell viability at time point in d-U937 cells 24 h” value was “−ve (−ve and +ve indicate that the value is below and above respectively, the no significant effect threshold, defined as 30% inhibition at 1 μg/mL at the time point indicated.)”.

In series [1], `COc1cc(Nc2nccc(Oc3ccc(NC(=O)Nc4cc(C(C)C)nn4-c4ccc(C)cc4)c4ccccc34)n2)cc(C(=O)N2CCN(C)CC2)c1` [Example 69, 1-(3-isopropyl-1-(p-tolyl)-1H-pyrazol-5-yl)-3-(4-((2-((3-methoxy-5-(4-methylpiperazine-1-carbonyl)phenyl)amino)pyrimidin-4-yl)oxy)naphthalen-1-yl)urea] gave a pIC50 of 8.70. In addition, in series [2], the “Cell viability at time point in d-U937 cells 4 h” value is “−ve (−ve and +ve indicate that the value is below and above respectively, the no significant effect threshold, defined as 30% inhibition at 1 μg/mL at the time point indicated.)”; the “Cell viability at time point in d-U937 cells 24 h” value was “−ve (−ve and +ve indicate that the value is below and above respectively, the no significant effect threshold, defined as 30% inhibition at 1 μg/mL at the time point indicated.)”.

Regarding `COc1cc(Nc2nccc(Oc3ccc(NC(=O)Nc4cc(C(C)C)nn4-c4ccc(C)cc4)c4ccccc34)n2)cc(C(=O)NCCN(C)C)c1` [Example 5, N-(2-(Dimethylamino)ethyl)-3-((4-((4-(3-(3-isopropyl-1-(p-tolyl)-1H-pyrazol-5-yl)ureido)naphthalen-1-yl)oxy)pyrimidin-2-yl)amino)-5-methoxybenzamide], the pIC50 in series [1] was 9.00. Also, in series [2], the “Cell viability at time point in d-U937 cells 4 h” value is “−ve (−ve and +ve indicate that the value is below and above respectively, the no significant effect threshold, defined as 30% inhibition at 1 μg/mL at the time point indicated.)”; the “Cell viability at time point in d-U937 cells 24 h” value is “−ve (−ve and +ve indicate that the value is below and above respectively, the no significant effect threshold, defined as 30% inhibition at 1 μg/mL at the time point indicated.)”.

For `COc1ccc(-n2nc(C3(C)COC3)cc2NC(=O)Nc2ccc(Oc3ccnc(Nc4cccc(C(=O)NCCN5CCOCC5)c4)n3)c3ccccc23)cc1` [Example 23, 3-((4-((4-(3-(1-(4-methoxyphenyl)-3-(3-methyloxetan-3-yl)-1H-pyrazol-5-yl)ureido)naphthalen-1-yl)oxy)pyrimidin-2-yl)amino)-N-(2-morpholinoethyl)benzamide], the pIC50 in series [1] was over 9.00. Also, in series [2], the “Cell viability at time point in d-U937 cells 4 h” value is “−ve (−ve and +ve indicate that the value is below and above respectively, the no significant effect threshold, defined as 30% inhibition at 1 μg/mL at the time point indicated.)”; the “Cell viability at time point in d-U937 cells 24 h” value was “−ve (−ve and +ve indicate that the value is below and above respectively, the no significant effect threshold, defined as 30% inhibition at 1 μg/mL at the time point indicated.)”.

As for `COCCOc1cccc(-n2nc(C(C)(C)C)cc2NC(=O)Nc2ccc(Oc3ccnc(Nc4cc(OC)cc(C(=O)NCCN5CCOCC5)c4)n3)c3ccccc23)c1` [Example 55, 3-((4-((4-(3-(3-(tert-butyl)-1-(3-(2-methoxyethoxy)phenyl)-1H-pyrazol-5-yl)ureido)naphthalen-1-yl)oxy)pyrimidin-2-yl)amino)-5-methoxy-N-(2-morpholinoethyl)benzamide], the pIC50 in series [1] was 8.05. In series [2], the “Cell viability at time point in d-U937 cells 4 h” value is “−ve (−ve and +ve indicate that the value is below and above respectively, the no significant effect threshold, defined as 30% inhibition at 1 μg/mL at the time point indicated.)”; the “Cell viability at time point in d-U937 cells 24 h” value was “−ve (−ve and +ve indicate that the value is below and above respectively, the no significant effect threshold, defined as 30% inhibition at 1 μg/mL at the time point indicated.)”.

`COc1cc(Nc2nccc(Oc3ccc(NC(=O)Nc4cc(C(C)(C)C)nn4-c4ccc(C)cc4)c4ccccc34)n2)cc(C(=O)NCCN2CCOCC2)c1` [Example 52, 3-((4-((4-(3-(3-(tert-butyl)-1-(p-tolyl)-1H-pyrazol-5-yl)ureido)naphthalen-1-yl)oxy)pyrimidin-2-yl)amino)-5-methoxy-N-(2-morpholinoethyl)benzamide] showed a pIC50 in series [1] of 7.89. In series [2], the “Cell viability at time point in d-U937 cells 4 h” value is “−ve (−ve and +ve indicate that the value is below and above respectively, the no significant effect threshold, defined as 30% inhibition at 1 μg/mL at the time point indicated.)”; the “Cell viability at time point in d-U937 cells 24 h” value is “−ve (−ve and +ve indicate that the value is below and above respectively, the no significant effect threshold, defined as 30% inhibition at 1 μg/mL at the time point indicated.)”.

For `COc1ccc(C(=O)NCCN(C)C)cc1Nc1nccc(Oc2ccc(NC(=O)Nc3cc(C(C)C)nn3-c3ccc(C)cc3)c3ccccc23)n1` [Example 28, N-(2-(dimethylamino)ethyl)-3-((4-((4-(3-(3-isopropyl-1-(p-tolyl)-1H-pyrazol-5-yl)ureido)naphthalen-1-yl)oxy)pyrimidin-2-yl)amino)-4-methoxybenzamide], in series [1], the pIC50 was over 9.00. Moreover, in series [2], the “Cell viability at time point in d-U937 cells 4 h” value was “−ve (−ve and +ve indicate that the value is below and above respectively, the no significant effect threshold, defined as 30% inhibition at 1 μg/mL at the time point indicated.)”; the “Cell viability at time point in d-U937 cells 24 h” value was “−ve (−ve and +ve indicate that the value is below and above respectively, the no significant effect threshold, defined as 30% inhibition at 1 μg/mL at the time point indicated.)”.

With `COCCNC(=O)c1cc(Nc2nccc(Oc3ccc(NC(=O)Nc4cc(C(C)C)nn4-c4ccc(C)cc4)c4ccccc34)n2)cc(OC)c1` [Example 66, 3-((4-((4-(3-(3-isopropyl-1-(p-tolyl)-1H-pyrazol-5-yl)ureido)naphthalen-1-yl)oxy)pyrimidin-2-yl)amino)-5-methoxy-N-(2-methoxyethyl)benzamide], the pIC50 in series [1] is 7.62. In series [2], the “Cell viability at time point in d-U937 cells 4 h” value is “−ve (−ve and +ve indicate that the value is below and above respectively, the no significant effect threshold, defined as 30% inhibition at 1 μg/mL at the time point indicated.)”; the “Cell viability at time point in d-U937 cells 24 h” value was “−ve (−ve and +ve indicate that the value is below and above respectively, the no significant effect threshold, defined as 30% inhibition at 1 μg/mL at the time point indicated.)”.

In series [1], `COc1ccc(-n2nc(C3CCOC3)cc2NC(=O)Nc2ccc(Oc3ccnc(Nc4cc(OC)cc(C(=O)NCCN5CCOCC5)c4)n3)c3ccccc23)cc1` (stereo not drawn) [Example 59, 3-methoxy-5-((4-((4-(3-(1-(4-methoxyphenyl)-3-(tetrahydrofuran-3-yl)-1H-pyrazol-5-yl)ureido)naphthalen-1-yl)oxy)pyrimidin-2-yl)amino)-N-(2-morpholinoethyl)benzamide] gave a pIC50 of 8.70. Besides, in series [2], the “Cell viability at time point in d-U937 cells 4 h” value is “−ve (−ve and +ve indicate that the value is below and above respectively, the no significant effect threshold, defined as 30% inhibition at 1 μg/mL at the time point indicated.)”; the “Cell viability at time point in d-U937 cells 24 h” value is “−ve (−ve and +ve indicate that the value is below and above respectively, the no significant effect threshold, defined as 30% inhibition at 1 μg/mL at the time point indicated.)”.

The molecule `COc1ccc(-n2nc(C(C)C)cc2NC(=O)Nc2ccc(Oc3cc(Nc4cc(OC)cc(C(=O)NCCN5CCOCC5)c4)ncn3)c3ccccc23)cc1` [Example 14, 3-((6-((4-(3-(3-isopropyl-1-(4-methoxyphenyl)-1H-pyrazol-5-yl)ureido)naphthalen-1-yl)oxy)pyrimidin-4-yl)amino)-5-methoxy-N-(2-morpholinoethyl)benzamide] had a pIC50 in series [1] of over 9.00. Further, in series [2], the “Cell viability at time point in d-U937 cells 4 h” value is “−ve (−ve and +ve indicate that the value is below and above respectively, the no significant effect threshold, defined as 30% inhibition at 1 μg/mL at the time point indicated.)”; the “Cell viability at time point in d-U937 cells 24 h” value is “+ve (−ve and +ve indicate that the value is below and above respectively, the no significant effect threshold, defined as 30% inhibition at 1 μg/mL at the time point indicated.)”.
